Assay in all cases: inhibition of tumour cell growth, NCI panel, 48 h
The test system of assay [1] is HS 578T breast.
In assay [2] the test system is UO-31 renal.
The subject of assay [3] is U251 CNS.
Assay [4] has as its system M14 melanoma.
Assay [5] relates to A498 renal.
The subject of assay [6] is OVCAR-5 ovarian.
Assay [7] concerns MOLT-4 leukemia.
In assay [8] the test system is SK-MEL-28 melanoma.
For assay [9], the system named is HCC-2998 colon.
The subject of assay [10] is NCI/ADR-RES ovarian.
Assay [11] relates to PC-3 prostate.
Assay [12] has as its system SN12C renal.
The test system of assay [13] is CAKI-1 renal.
In assay [14] the test system is HCT-116 colon.
For assay [15], the system named is NCI-H460 lung.
In assay [16] the test system is IGROV1 ovarian.
The test system of assay [17] is TK-10 renal.
Assay [18] has as its system A549 NSCLC.
The subject of assay [19] is SF-539 CNS.
Assay [20] relates to CCRF-CEM leukemia.

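Tested at 5 concentrations; 48 h exposure; 96-well plates; endpoints linearly interpolated, else capped at highest concentration. TGI: concentration producing complete growth inhibition.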

Regarding `COc1ccc(C(=C2C(=O)N(c3ccccc3)C(=O)C2=C(C)C)c2ccc(OC)cc2)cc1`, the TGI is above 39 µM in assay [1]; above 31 µM in [2]; above 46.1 µM in assay [3]; 13.5 µM in assay [4]; 16 µM in assay [5]; above 58.6 µM in assay [6]. Moreover, the TGI in assay [7] is above 39.7 µM; in assay [8] it was 20.7 µM; in assay [9], above 52 µM; in assay [10], above 100 µM; in assay [11], above 40.1 µM; in assay [12], above 38.2 µM. The TGI is 42 µM in assay [13]; above 51.1 µM in assay [14]; above 100 µM in assay [15]; above 36.6 µM in assay [16]; above 47.5 µM in [17]; above 62.9 µM in [18]. This molecule also had a TGI in [19] above 24.2 µM.
For the molecule `O=c1c2cc(S(=O)(=O)Nc3ccc(Cl)cc3Cl)ccc2ncn1NS(=O)(=O)c1cccc2ccccc12`, the TGI in assay [1] is above 100 µM; in assay [2] it was 62.3 µM; in [3], above 100 µM; in assay [4], above 100 µM; in [6] it was above 100 µM; in [7], 85.5 µM. The TGI in assay [8] was above 100 µM; in assay [9], above 100 µM; in assay [10] it was above 100 µM; in assay [11], above 100 µM; in assay [12] it was above 100 µM; in assay [13], 85.7 µM. Moreover, the TGI in assay [14] is above 100 µM; in [15], above 100 µM; in assay [16], above 100 µM; in assay [17] it was above 100 µM; in assay [20], 47.7 µM; in assay [18] it was above 100 µM. The same molecule yielded a TGI in assay [19] above 100 µM.
With `CC(=O)OCC1OC(Oc2cc(C)c(O)cc2C/C=C(\C)CC/C=C(\C)C[C@@H](C=C(C)C)OC(C)=O)C(O)C(OC(C)=O)C1OC(C)=O` (some centres not stated), the TGI in assay [1] is 39.2 µM; in assay [2], above 50 µM; in assay [3], above 50 µM; in assay [4] it was above 50 µM; in assay [5], 41.9 µM; in assay [6], above 50 µM. For the same molecule, the TGI in assay [7] was 20.5 µM; in assay [8] it was above 50 µM; in assay [9] it was 41.2 µM; in assay [10], above 50 µM; in assay [11] it was above 50 µM; in assay [12] it was above 50 µM. The TGI is above 50 µM in assay [13]; above 50 µM in assay [14]; above 50 µM in assay [15]; above 50 µM in [16]; above 50 µM in assay [17]; 29.4 µM in assay [20]. Moreover, the TGI in assay [18] is above 50 µM.
As for `CNN1C(=O)c2c(C)c(C)c(C#N)c(N)c2C1=O`, the TGI in [1], in assay [2], in [3], in [4], in [6] and in [7] was above 100 µM throughout. The TGI in assay [8], in assay [9], in assay [10], in assay [11], in [12] and in [13] was above 100 µM in each case. Moreover, the TGI in assay [14], in assay [15], in assay [16], in assay [17], in assay [20] and in [18] was above 100 µM each time. This molecule also returned a TGI in assay [19] above 100 µM.
`Cc1c(N=Nc2ccc(Cl)cc2)c(C)n(C2OC(CO)C(O)C(O)C2O)c(=S)c1C#N` (configuration not stated): the TGI was 83 µM in assay [1]; 57.9 µM in [2]; 36.4 µM in [3]; 36.5 µM in [4]; above 100 µM in assay [6]; 42.3 µM in assay [7]. For the same molecule, the TGI in assay [8] was 52.3 µM; in [9] it was 58.7 µM; in [10], 47.1 µM; in assay [11] it was 68.7 µM; in assay [12], 41.8 µM; in [13], above 100 µM. Besides, the TGI was 29.1 µM in assay [14]; 87.4 µM in [15]; 37.4 µM in [16]; 79.5 µM in assay [17]; 53.5 µM in [20]; above 100 µM in assay [18]. The molecule also displayed a TGI in assay [19] of 38 µM.
Consider `Cc1ccc(S(=O)(=O)N/N=C2\CC(C)OC3=C2CCCCCC3)cc1` (configuration not stated), for which the TGI in [1] was found to be 47 µM; in assay [2], 31.2 µM; in assay [4], 36.2 µM; in assay [5] it was 29.7 µM; in [6], 37.8 µM; in assay [7] it was 55.9 µM. Besides, the TGI in [8] is 39.3 µM; in assay [10], 44.7 µM; in assay [11] it was 38.9 µM; in [12], 34.4 µM; in [13] it was 44.6 µM; in assay [14], 30.4 µM. In addition, the TGI in assay [15] was above 100 µM; in [16] it was 38.2 µM; in assay [17], 37.2 µM; in assay [20], above 100 µM; in assay [18], 34.4 µM; in assay [19], 38.9 µM.
In the case of `OCCCCCCCCCCCOc1ccc(C2OCC3(CC=CCC3)CO2)cc1` (configuration not stated), the TGI is 40 µM in assay [1]; 40.9 µM in [2]; 33.2 µM in assay [3]; 26 µM in assay [4]; 46.3 µM in assay [6]; above 100 µM in assay [7]. The TGI in [8] is 42.4 µM; in assay [9], 38 µM; in assay [10], 36.3 µM; in [11], 22.8 µM; in [12], 36.8 µM; in [13], 31.1 µM. Further, the TGI in assay [14] stood at 29.3 µM; in assay [15] it was 36.5 µM; in [16], 33 µM; in [17] it was 32.1 µM; in assay [20], 55.6 µM; in assay [18], 45.7 µM. For the same molecule, the TGI in assay [19] turned out to be 45.6 µM.

The values are drawn from PubChem BioAssay (NCI).
